The record followed here is patent US8530381B2, “Active compound combinations” (Bayer CropScience AG, priority 2009, dated 2013).

Molecules are shown by their SMILES.

One test deals with Pyrenophora teres. Put plainly: Pyrenophora teres-test (barley)/preventive. In kind it is in vivo. The following applies: preventive spray, evaluated 8 days after inoculation. The method, then: (§1) Here, the efficacy is determined in %. 0% means an efficacy which corresponds to that of the control, whereas an efficacy of 100% means that no infection is observed.
(§2) If the actual fungicidal action exceeds the calculated value, the action of the combination is superadditive, i.e. a synergistic effect is present. In this case, the actually observed efficacy must exceed the value calculated using the above formula for the expected efficacy (E).
Pyrenophora teres-Test (Barley)/Preventive
(§3) Solvent: 49 parts by weight of n,n-dimethylacetamid
(§4) Emulsifier: 1 part by weight of alkylaryl polyglycol ether
(§5) To produce a suitable preparation of active compound, 1 part by weight of active compound or active compound combination is mixed with the stated amounts of solvent and emulsifier, and the concentrate is diluted with water to the desired concentration.
(§6) To test for preventive activity, young plants are sprayed with the preparation of active compound or active compound combination at the stated rate of application.
After the spray coating has been dried, the plants are sprayed with a spore suspension of Pyrenophora teres. The plants remain for 48 hours in an incubation cabinet at approximately 20° C. and a relative atmospheric humidity of approximately 100%. […]
The test is evaluated 8 days after the inoculation. […]

Test [1] deals with Blumeria graminis f.sp. hordei. Put plainly: Blumeria-test (barley)/preventive. In kind it is in vivo. The conditions noted are these: preventive spray, application rate 62,5 g/ha, evaluated 7 days after inoculation. How it is done:
as §1, §2
Blumeria Test (Barley)/Preventive
as §3, §4, §5, §6
After the spray coating has been dried, the plants are dusted with spores of Blumeria graminis f.sp. hordei.
The plants are placed in the greenhouse at a temperature of approximately 18° C. and a relative atmospheric humidity of approximately 80% to promote the development of mildew pustules.
The test is evaluated 7 days after the inoculation. 0% means an efficacy which corresponds to that of the control, while an efficacy of 100% means that no disease is observed.

As for `CCN(C)/C=N/c1cc(C)c(Oc2nc(Cc3ccc(Cl)cc3)ns2)cc1C` [I-a], the “Efficacy in % found” value (in the test with Pyrenophora teres (application rate 62,5 g/ha); in test [1]) was 40% each time. With `CO/N=C(/C(=O)OC)c1ccccc1CO/N=C(\C)c1cccc(C(F)(F)F)c1` [3.17, trifloxystrobin], the “Efficacy in % found” value in test [1] was found to be 80%. Same read-out and setting: the same measure for `Cn1cc(C(=O)Nc2ccc(F)cc2-c2ccc(Cl)c(Cl)c2)c(C(F)F)n1` [2.2, bixafen]: 10%. As to `OC(Cc1ccccc1Cl)(Cn1nc[nH]c1=S)C1(Cl)CC1` (centres unmarked) [1.41, prothioconazole], in the test with Pyrenophora teres (application rate 125 g/ha), the “Efficacy in % found” value is recorded as 70%.
